Data on 36 molecules can be found in patent publication US20110086834A1, “ALKYNYL ALCOHOLS AS KINASE INHIBITORS” (AMGEN INC., priority 2008, published 2011).

Molecules are shown by their SMILES.

For the assay, the target named is T1, NIK (Homo sapiens, UniProt Q99558).
T1 construct: Both assays utilize a truncated form of NIK containing only the catalytic domain; made in house; host or cells: baculovirus expression system (insect cells implied)
T1 sequence (Q99558 400-655 limits assumed): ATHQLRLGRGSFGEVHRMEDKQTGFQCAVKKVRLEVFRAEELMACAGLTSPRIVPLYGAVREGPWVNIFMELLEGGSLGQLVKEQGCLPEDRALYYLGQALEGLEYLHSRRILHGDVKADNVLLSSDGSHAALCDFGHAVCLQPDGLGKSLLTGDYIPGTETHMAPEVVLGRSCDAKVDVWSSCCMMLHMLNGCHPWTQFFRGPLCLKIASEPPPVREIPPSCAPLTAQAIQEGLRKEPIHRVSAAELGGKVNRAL
The assay is described as follows: homogenous time resolved fluorescence (HTRF) assay for NIK Ki measurement. It counts as biochemical. The following applies: truncated NIK (catalytic domain only), autophosphorylation; 10 nM enzyme; 20, 100, 200 or 500 μM ATP; room temperature, 2 hours; read-out: Ki activity in the homogenous time resolved fluorescence (HTRF) assay for NIK. A general note: In TR-FRET formats the signal depends on donor and acceptor labels being close together.
For the molecule `Nc1nccc(N2CCc3ccc(C#CC4(O)CCSC4)cc32)n1` (stereo not drawn) [Example 264, 3-((1-(2-amino-4-pyrimidinyl)-2,3-dihydro-tH-indol-6-yl)ethynyl)tetrahydro-3-thiopheneol], the inhibitory constant (Ki) was less than 1 µM.

Regarding `C[C@@](O)(C#Cc1ccc2c(c1)N(c1nc(N)ncc1Cl)CC21COC1)c1nccs1` (single isomer, unassigned) [Example 82], the Ki was less than 1 µM. Turning to `COc1cnc(N)nc1-c1c[nH]c2ccc(C#CC3(O)CCCC3)cc12` [Example 227, 1-((3-(2-Amino-5-methoxy-4-pyrimidinyl)-1H-indol-5-yl)ethynyl)cyclopentanol], the Ki was less than 1 µM. For the molecule `C[C@@](O)(C#Cc1ccc2c(c1)N(c1nc(N)ncc1Cl)CC21CCOCC1)c1nccs1` (single isomer, unassigned) [Example 209], the Ki was less than 1 µM. The same measure for `N#Cc1cnc(N)nc1-c1c[nH]c2ccc(C#CC3(O)CCCC3)cc12` [Example 108, 2-amino-4-(5-(2-(1-hydroxycyclopentyl)ethynyl)-1H-indol-3-yl)pyrimidine-5-carbonitrile]: less than 1 µM; for `CC(=O)n1cc(-c2nc(N)ncc2Cl)c2cc(C#CC3(O)CCCC3)ccc21` [Example 120, 1-(3-(2-amino-5-chloropyrimidin-4-yl)-5-(2-(1-hydroxycyclopentyl)ethynyl)-1H-indol-1-yl)ethanone]: less than 1 µM. Regarding `Cc1cc(C(C)(O)C#Cc2ccc3c(c2)N(c2nc(N)ncc2Cl)CC32CCOC2)no1` (single isomer, unassigned) [Example 204, 4-((3S*)-1′-(2-Amino-5-chloro-4-pyrimidinyl)-1′,2′,4,5-tetrahydrospiro[furan-3,3′-indol]-6′-yl)-2-(5-methyl-3-isoxazolyl)-3-butyn-2-ol], the Ki is less than 1 µM.

For the molecule `C[C@](O)(C#Cc1ccc2c(c1)N(c1nc(N)ncc1Cl)CC21CCOCC1)c1nccs1` (single isomer, unassigned) [Example 209a], the Ki lay within 1 to 30 µM. The same measure for `CC(=O)Nc1cc(C#CC2(O)CCCC2)cc2c1ccn2-c1ccnc(N)n1` [Example 101, N-(1-(2-aminopyrimidin-4-yl)-6-(2-(1-hydroxycyclopentyl)ethynyl)-1H-indol-4-yl)acetamide]: less than 1 µM; for `C[C@@](O)(C#Cc1ccc2c(c1)N(c1nc(N)ncc1Cl)CC21CS(=O)(=O)C1)c1nccs1` [Example 213, (2R)-4-(1-(2-Amino-5-chloro-4-pyrimidinyl)-1′,1′-dioxido-1,2-dihydrospiro[indole-3,3′-thietan]-6-yl)-2-(1,3-thiazol-2-yl)-3-butyn-2-ol]: less than 1 µM.

Regarding `CN(c1cc(C#CC(C)(O)c2nccs2)ccc1OC1CCOCC1)c1nc(N)ncc1Cl` (stereo not drawn) [Example 165, 4-(3-((2-amino-5-chloropyrimidin-4-yl)(methyl)amino)-4-(tetrahydro-2H-pyran-4-yloxy)phenyl)-2-(thiazol-2-yl)but-3-yn-2-ol], the Ki was less than 1 µM. `Cc1nc(C)c(C(C)(O)C#Cc2ccc3c(c2)N(c2ccnc(N)n2)CC3)s1` (stereo not drawn) [Example 283, 4-(1-(2-Amino-4-pyrimidinyl)-2,3-dihydro-1H-indol-6-yl)-2-(2,4-dimethyl-1,3-thiazol-5-yl)-3-butyn-2-ol]: the Ki fell in the range of 1 to 30 µM. Turning to `CC(O)(C#Cc1ccc2c(c1)N(c1nc(N)ncc1Cl)CC2)c1cc(N2CCCCC2)ccn1` (stereo not drawn) [Example 10, 4-(1-(2-amino-5-chloropyrimidin-4-yl)indolin-6-yl)-2-(4-(piperidin-1-yl)pyridin-2-yl)but-3-yn-2-ol], the Ki was 1 to 30 µM. Regarding `Cc1ccc(C#CC(C)(O)c2nccs2)cc1Nc1ccc(C#N)cn1` (stereo not drawn) [Example 170, 6-(5-(3-Hydroxy-3-(thiazol-2-yl)but-1-ynyl)-2-methylphenylamino)nicotinonitrile], the Ki lay within 1 to 30 µM. The same measure for `COCCOc1ccc(C#C[C@@](C)(O)c2cc(C)on2)cc1Nc1nc(N)ncc1Cl` (single isomer, unassigned) [Example 179]: less than 1 µM; for `COCCOc1cnc(N)nc1-c1cn(C)c2ccc(C#CC3(O)CCCC3)cc12` [Example 233, 1-((3-(2-Amino-5-(2-methoxyethoxy)-4-pyrimidinyl)-1-methyl-1H-indol-5-yl)ethynyl)cyclopentanol]: less than 1 µM; for `Nc1ncc(Cl)c(N2CCc3ccc(C#CC4(O)CCCC4)cc32)n1` [Example 16, 1-(2-(1-(2-amino-5-chloropyrimidin-4-yl)indolin-6-yl)ethynyl)cyclopentanol]: less than 1 µM. The same measure for `Nc1ncc(Cl)c(Nc2cc(C#CC3(O)CCCC3)ccc2OC2CCOCC2)n1` [Example 149, 1-(2-(3-(2-Amino-5-chloropyrimidin-4-ylamino)-4-(tetrahydro-2H-pyran-4-yloxy)phenyl)ethynyl)cyclopentanol]: less than 1 µM.

For the molecule `CN1CCC2(C1)CN(c1nc(N)ncc1Cl)c1cc(C#CC3(O)CCCC3)ccc12` (racemic) [Example 188, 1-((1-(2-Amino-5-chloro-4-pyrimidinyl)-r-methyl-1,2-dihydrospiro[indole-3,3′-pyrrolidin]-6-yl)ethynyl)cyclopentanol], the Ki was less than 1 µM. Turning to `CC(O)(C#Cc1ccc2c(c1)N(c1nc(N)ncc1Cl)CC21CCCC1)c1ncco1` (stereo not drawn) [Example 319, 4-(1′-(2-Amino-5-chloro-4-pyrimidinyl)-1′,2′-dihydrospiro[cyclopentane-1,3′-indol]-6′-yl)-2-(1,3-oxazol-2-yl)-3-butyn-2-ol], the Ki is less than 1 µM. On to `CNc1ncc2c(n1)-c1c(nc3ccc(C#CC4(O)CCCC4)cn13)CCC2` [Example 251, 1-((2-(methylamino)-6,7-dihydro-5H-pyrido[1″,2″:1′,2′]imidazo[4′,5′:6,7]-cyclohepta[1,2-d]pyrimidin-11-yl)ethynyl)cyclopentanol], for which the Ki was in the range of 1 to 30 µM. For the molecule `CC(O)(C#Cc1ccc2c(c1)N(c1nc(N)ncc1Cl)CC2(C)CO)c1nccs1` (single isomer, unassigned) [Example 53, 4-((3 S*)-1-(2-amino-5-chloro-4-pyrimidinyl)-3-(hydroxymethyl)-3-methyl-2,3-dihydro-1H-indol-6-yl)-2-(1,3-thiazol-2-yl)-3-butyn-2-ol], the Ki is less than 1 µM. As to `COc1cc(Nc2cc(-n3ccc4ccc(C#CC5(O)CCCC5)cc43)ncn2)cc(OC)c1OC` [Example 258, 1-((1-(6-((3,4,5-tris(methyloxy)phenyl)amino)-4-pyrimidinyl)-1H-indol-6-yl)ethynyl)cyclopentanol], the Ki lay in the range of 1 to 30 µM. In the case of `CC(O)(C#Cc1cccc(Nc2ccncc2C(F)(F)F)n1)c1nccs1` (stereo not drawn) [Example 174, 2-(thiazol-2-yl)-4-(6-(3-(trifluoromethyl)pyridin-4-ylamino)pyridin-2-yl)but-3-yn-2-ol], the Ki lay in the range of 1 to 30 µM. The same measure for `C[C@@](O)(C#Cc1ccc2c(c1)N(c1ccncn1)CC21CCOCC1)c1nccs1` [Example 33, (2R)-4-(1-pyrimidin-4-yl-1,2,2′,3′,5′,6′-hexahydrospiro[indole-3,4′-pyran]-6-yl)-2-(1,3-thiazol-2-yl)but-3-yn-2-ol]: less than 1 µM.

Consider `Nc1ncc(Cl)c(-c2cn(CCN3CCOCC3)c3ccc(C#CC4(O)CCCC4)cc23)n1` [Example 126, 1-(2-(3-(2-amino-5-chloropyrimidin-4-yl)-1-(2-morpholinoethyl)-1H-indol-5-yl)ethynyl)cyclopentanol], for which the Ki was less than 1 µM.

Turning to `Cc1cc(C(C)(O)C#Cc2ccc(CN3CCOCC3)c(Nc3nc(N)ncc3Cl)c2)no1` (stereo not drawn) [Example 158, 4-(3-(2-Amino-5-chloropyrimidin-4-ylamino)-4-(morpholinomethyl)phenyl)-2-(5-methylisoxazol-3-yl)but-3-yn-2-ol], the Ki was less than 1 µM. The same measure for `Cc1nonc1C(C)(O)C#Cc1ccc2c(c1)N(c1nc(N)ncc1Cl)CC2` (stereo not drawn) [Example 6, 4-(1-(2-amino-5-chloropyrimidin-4-yl)indolin-6-yl)-2-(4-methyl-1,2,5-oxadiazol-3-yl)but-3-yn-2-ol]: 1 to 30 µM; for `COCCOCCn1cc(-c2nc(N)ncc2F)c2cc(C#CC3(O)CCCC3)ccc21` [Example 133, 1-(2-(3-(2-amino-5-fluoropyrimidin-4-yl)-1-(2-(2-methoxyethoxy)ethyl)-1H-indol-5-yl)ethynyl)cyclopentanol]: less than 1 µM; for `Cc1[nH]c2ccc(C#CC(C)(O)c3nccs3)cc2c1-c1ccncc1` (stereo not drawn) [Example 295, 4-(2-Methyl-3-(4-pyridinyl)-1H-indol-5-yl)-2-(1,3-thiazol-2-yl)-3-butyn-2-ol]: less than 1 µM. The same measure for `COCCOc1cc(C#CC2(O)CCCC2)cc2c1ccn2-c1ccnc(N)n1` [Example 100, 1-(2-(1-(2-aminopyrimidin-4-yl)-4-(2-methoxyethoxy)-1H-indol-6-yl)ethynyl)cyclopentanol]: less than 1 µM. The same measure for `COCCNC(=O)c1c(-c2ccncn2)c2cc(C#CC(C)(O)c3nccs3)ccc2n1C` (stereo not drawn) [Example 90, 5-(3-hydroxy-3-(thiazol-2-yl)but-1-ynyl)-N-(2-methoxyethyl)-1-methyl-3-(pyrimidin-4-yl)-1H-indole-2-carboxamide]: less than 1 µM; for `CC(O)(C#Cc1ccc2c(c1)N(c1nc(N)ncc1Cl)CC2(C)C)c1ccccn1` (stereo not drawn) [Example 304, 4-(1-(2-Amino-5-chloro-4-pyrimidinyl)-3,3-dimethyl-2,3-dihydro-1H-indol-6-yl)-2-(2-pyridinyl)-3-Butyn-2-ol]: less than 1 µM. On to `C[C@@](O)(C#Cc1ccc2c(c1)C(c1nc(N)ncc1Cl)=CC21CCOCC1)c1nccs1` [Example 221, (2R)-4-(3-(2-Amino-5-chloro-4-pyrimidinyl)-2′,3′,5′,6′-tetrahydrospiro[indene-1,4′-pyran]-5-yl)-2-(1,3-thiazol-2-yl)-3-butyn-2-ol], for which the Ki is less than 1 µM. The same measure for `Cc1ccc(C#CC(C)(O)c2nccs2)cc1Nc1ccncc1` (stereo not drawn) [Example 172, 4-(4-Methyl-3-(pyridin-4-ylamino)phenyl)-2-(thiazol-2-yl)but-3-yn-2-ol]: 1 to 30 µM; for `CNc1ncc(Cl)c(-c2c[nH]c3ccc(C#CC4(O)CCCC4)cc23)n1` [Example 112, 1-(2-(3-(5-chloro-2-(methylamino)pyrimidin-4-yl)-1H-indol-5-yl)ethynyl)cyclopentanol]: less than 1 µM.

A word on the Ki: it is a dissociation constant, usually derived from enzyme kinetics or from competition with a known ligand.
